Experimental data: paper PMC2746553 (Biochemistry, 2009)
Blank lines part the entries; values can stand above or below the molecule they belong to.

Columns and labels:
[1] = target: T1, 15-hLO-2 (human epithelial 15-lipoxygenase-2) (Homo sapiens, UniProt O15296); experiment: steady-state inhibition kinetics with AA as substrate; assay type: biochemical
T1 sequence (O15296 1-676): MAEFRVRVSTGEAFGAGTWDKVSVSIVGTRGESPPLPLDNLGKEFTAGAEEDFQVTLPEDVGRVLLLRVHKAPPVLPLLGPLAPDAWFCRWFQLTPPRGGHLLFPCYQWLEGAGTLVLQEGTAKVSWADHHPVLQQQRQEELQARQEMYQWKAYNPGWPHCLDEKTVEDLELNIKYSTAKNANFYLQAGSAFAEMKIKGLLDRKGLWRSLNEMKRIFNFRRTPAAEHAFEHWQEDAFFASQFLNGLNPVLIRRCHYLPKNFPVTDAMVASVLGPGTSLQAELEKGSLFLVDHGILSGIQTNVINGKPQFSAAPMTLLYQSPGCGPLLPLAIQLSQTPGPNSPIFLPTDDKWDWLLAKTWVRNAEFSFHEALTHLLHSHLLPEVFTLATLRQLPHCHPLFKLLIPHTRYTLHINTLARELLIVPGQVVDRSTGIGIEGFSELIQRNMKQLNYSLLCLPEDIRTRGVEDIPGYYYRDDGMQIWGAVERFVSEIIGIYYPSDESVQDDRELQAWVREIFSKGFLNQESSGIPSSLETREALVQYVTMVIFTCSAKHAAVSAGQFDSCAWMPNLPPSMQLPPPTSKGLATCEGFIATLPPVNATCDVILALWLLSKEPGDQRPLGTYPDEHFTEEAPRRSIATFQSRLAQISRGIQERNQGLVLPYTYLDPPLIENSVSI

[2] = target: T1, 15-hLO-2 (human epithelial 15-lipoxygenase-2)
[3] = target: T1, 15-hLO-2 (human epithelial 15-lipoxygenase-2); experiment: competitive kinetic isotope effect and competitive substrate capture; assay type: biochemical
[4] = target: T1, 15-hLO-2 (human epithelial 15-lipoxygenase-2); experiment: competitive substrate capture, solvent isotope effect and steady-state kinetics; assay type: biochemical

Structure (SMILES): CCCCC/C=C\C/C=C\CCCCCCCC(=O)O [d31-LA]
- Ki [1]: 17 ± 3 µM

Structure (SMILES): CCCCC/C=C\C/C=C\C/C=C\C/C=C\CCCC(=O)O [AA, arachidonic acid]
- steady-state kinetics (234 nm), kcat/KM at pH 7.5 [2]: 0.15 ± 0.02 μM^-1 s^-1

Structure (SMILES): CCCCC/C=C\C/C=C\CCCCCCCC(=O)O [LA, linoleic acid]
- competitive kinetic isotope effect and competitive substrate capture (HPLC) [3]: 45 ± 3

- Kd [4]: ~5 nM
Structure (SMILES): CCCCC[C@H](O)/C=C/C=C\CCCCCCCC(=O)O [13-HODE, 13-(S)-hydroxyoctadecadienoic acid]
